Experimental data as given in US7709223B2, “Method for detecting bacteria with chromogenic substrates for β-D-ribofuranosidase” (priority 2001, dated 2010).
Counter-ions that a name gives are not always drawn.

Columns and labels:
Assay in all cases: Hydrolysis on Columbia agar with ferric ammonium citrate
[1] = tested on: Aeromonas caviae; type: cell-based; parameters: key to the marks not given beside the values; conditions: Aeromonas caviae NCTC 10852
Protocol: (§1) The chromogenic β-D-ribofuranoside substrate was added to Columbia agar at a substrate concentration of 300 mg/l. Ferric ammonium citrate was included at 500 mg/l. All ingredients were autoclaved at 116° C. for 20 minutes to ensure sterilisation. Agar plates were then prepared in 90 mm petri dishes. The substrate caused a yellow colouration of the agar.
(§2) For each strain tested, a bacterial suspension was prepared in sterile deionised water at an inoculum of approximately 1.5×10^8 colony forming units per ml. This was achieved using a densitometer. 1 μl of each bacterial suspension was then inoculated onto each plate using a multipoint inoculator. Strains were inoculated in parallel onto Columbia agar containing ferric ammonium citrate with no substrate (negative control).
(§3) After 18 hours incubation, strains were examined visually for the presence of colour. Any strains producing a black colouration on substrate containing media but not on the negative control plates were deemed to be hydrolysing the substrate.

[2] = tested on: Aeromonas hydrophila; type: cell-based; parameters: key to the marks not given beside the values; conditions: Aeromonas hydrophila NCTC 8049
Protocol: as §1, §2, §3

[3] = tested on: Aeromonas sobria; type: cell-based; parameters: key to the marks not given beside the values; conditions: Aeromonas sobria NCTC 11215
Protocol: as §1, §2, §3

[4] = tested on: C. diversus; type: cell-based; parameters: key to the marks not given beside the values
Protocol: as §1, §2, §3

[5] = tested on: C. freundii; type: cell-based; parameters: key to the marks not given beside the values
Protocol: as §1, §2, §3

[6] = tested on: E. cloacae; type: cell-based; parameters: key to the marks not given beside the values
Protocol: as §1, §2, §3

[7] = tested on: E. coli 0157; type: cell-based; parameters: key to the marks not given beside the values
Protocol: as §1, §2, §3

[8] = tested on: Hafnia alvei; type: cell-based; parameters: key to the marks not given beside the values
Protocol: as §1, §2, §3

[9] = tested on: K. oxytoca; type: cell-based; parameters: key to the marks not given beside the values
Protocol: as §1, §2, §3

[10] = tested on: Salmonella alachia; type: cell-based; parameters: key to the marks not given beside the values; conditions: Salmonella alachia SAX 60
Protocol: as §1, §2, §3

[11] = tested on: Salmonella hadar; type: cell-based; parameters: key to the marks not given beside the values; conditions: Salmonella hadar SAX 57
Protocol: as §1, §2, §3

[12] = tested on: Salmonella motevideo; type: cell-based; parameters: key to the marks not given beside the values; conditions: Salmonella motevideo SAX 55
Protocol: as §1, §2, §3

[13] = tested on: Salmonella oranienburg; type: cell-based; parameters: key to the marks not given beside the values; conditions: Salmonella oranienburg SAX 56
Protocol: as §1, §2, §3

[14] = tested on: Salmonella orthmarchen; type: cell-based; parameters: key to the marks not given beside the values; conditions: Salmonella orthmarchen SAX 59
Protocol: as §1, §2, §3

[15] = tested on: Salmonella panama; type: cell-based; parameters: key to the marks not given beside the values; conditions: Salmonella panama SAX 58
Protocol: as §1, §2, §3

[16] = tested on: Salmonella typhimurium; type: cell-based; parameters: key to the marks not given beside the values; conditions: Salmonella typhimurium NCTC 74
Protocol: as §1, §2, §3

[17] = tested on: Salmonella typhi; type: cell-based; parameters: key to the marks not given beside the values; conditions: Salmonella typhi NCTC 8385
Protocol: as §1, §2, §3

[18] = tested on: Serratia marcescens; type: cell-based; parameters: key to the marks not given beside the values; conditions: Serratia marcescens NCTC 10211
Protocol: as §1, §2, §3

[19] = tested on: Serratia spp.; type: cell-based; parameters: key to the marks not given beside the values
Protocol: as §1, §2, §3

[20] = tested on: Shigella boydii; type: cell-based; parameters: key to the marks not given beside the values
Protocol: as §1, §2, §3

[21] = tested on: Shigella dysenteriae; type: cell-based; parameters: key to the marks not given beside the values
Protocol: as §1, §2, §3

[22] = tested on: Shigella flexneri; type: cell-based; parameters: key to the marks not given beside the values
Protocol: as §1, §2, §3

[23] = tested on: Staphylococcus saprophyticus; type: cell-based; parameters: key to the marks not given beside the values
Protocol: as §1, §2, §3

[24] = tested on: Vibrio fluvialis; type: cell-based; parameters: key to the marks not given beside the values; conditions: Vibrio fluvialis NCTC 11327
Protocol: as §1, §2, §3

[25] = tested on: Vibrio harveyi; type: cell-based; parameters: key to the marks not given beside the values; conditions: Vibrio harveyi NCTC 11346
Protocol: as §1, §2, §3

[26] = tested on: Vibrio metschnikovii; type: cell-based; parameters: key to the marks not given beside the values; conditions: Vibrio metschnikovii NCTC 8443
Protocol: as §1, §2, §3

[27] = tested on: C. diphtheriae; type: cell-based, Corynebacterium diphtheriae
Protocol: as §1, §2, §3

[28] = tested on: Enterococcus faecium; type: cell-based
Protocol: as §1, §2, §3

For `O=c1cc(-c2ccc(OC3OC(CO)C(O)C3O)c(O)c2)oc2ccccc12` [DHF-riboside, 3′,4′-Dihydroxyflavone-4′-β-D-ribofuranoside sodium salt], the “β-Riboside (hydrolysis)” value [1] was “++”, the “β-Riboside (hydrolysis)” value [2] was “++” and the “β-Riboside (hydrolysis)” value [3] was “++”. The “β-Riboside (hydrolysis)” value ([4]; C. diversus CDI 1) was “++”, the “β-Riboside (hydrolysis)” value ([4]; C. diversus CDI 2) was “++” and the “β-Riboside (hydrolysis)” value ([5]; C. freundii CFR 1) was “++”. For the same molecule, the “β-Riboside (hydrolysis)” value ([5]; C. freundii CFR 2) was “++”, the “β-Riboside (hydrolysis)” value ([5]; C. freundii CFR 3) was “++” and the “β-Riboside (hydrolysis)” value ([5]; C. freundii CFR 4) was “++”. The “β-Riboside (hydrolysis)” value ([5]; C. freundii NCTC 9750) was “++”, the “β-Riboside (hydrolysis)” value ([6]; E. cloacae ECL 1) was “++” and the “β-Riboside (hydrolysis)” value ([6]; E. cloacae ECL 2) was “++”. The “β-Riboside (hydrolysis)” value ([6]; E. cloacae ECL 3) was “++”, the “β-Riboside (hydrolysis)” value ([6]; E. cloacae ECL 4) was “++” and the “β-Riboside (hydrolysis)” value ([6]; E. cloacae NCTC 11936) was “++”. For the same molecule, the “β-Riboside (hydrolysis)” value ([7]; E. coli 0157 NCTC 12079) was “++”, the “β-Riboside (hydrolysis)” value ([7]; E. coli 0157 NCTC 12080) was “++” and the “β-Riboside (hydrolysis)” value ([7]; E. coli 0157 NCTC 12900) was “++”. The “β-Riboside (hydrolysis)” value ([7]; E. coli 0157 NCTC 13125) was “++”, the “β-Riboside (hydrolysis)” value ([7]; E. coli 0157 NCTC 13126) was “++” and the “β-Riboside (hydrolysis)” value ([7]; E. coli 0157 NCTC 13127) was “++”. For the same molecule, the “β-Riboside (hydrolysis)” value ([7]; E. coli 0157 NCTC 13128) was “++”, the “β-Riboside (hydrolysis)” value ([8]; Hafnia alvei HAL 2) was “++” and the “β-Riboside (hydrolysis)” value ([8]; Hafnia alvei NCTC 8105) was “++”. For the same molecule, the “β-Riboside (hydrolysis)” value ([9]; K. oxytoca KOX 1) was “++”, the “β-Riboside (hydrolysis)” value ([9]; K. oxytoca KOX 2) was “++” and the “β-Riboside (hydrolysis)” value [10] was “++”. For the same molecule, the “β-Riboside (hydrolysis)” value [11] was “++”, the “β-Riboside (hydrolysis)” value [12] was “++” and the “β-Riboside (hydrolysis)” value [13] was “++”. For the same molecule, the “β-Riboside (hydrolysis)” value [14] was “++”, the “β-Riboside (hydrolysis)” value [15] was “++” and the “β-Riboside (hydrolysis)” value [16] was “++”. For the same molecule, the “β-Riboside (hydrolysis)” value [17] was “++”, the “β-Riboside (hydrolysis)” value [18] was “++” and the “β-Riboside (hydrolysis)” value ([19]; Serratia spp. SEX 1) was “++”. The “β-Riboside (hydrolysis)” value ([19]; Serratia spp. SEX 2) was “++”, the “β-Riboside (hydrolysis)” value ([19]; Serratia spp. SEX 3) was “++” and the “β-Riboside (hydrolysis)” value ([19]; Serratia spp. SEX 4) was “++”. For the same molecule, the “β-Riboside (hydrolysis)” value ([20]; Shigella boydii NCTC 9327) was “++”, the “β-Riboside (hydrolysis)” value ([20]; Shigella boydii NCTC 9732) was “++” and the “β-Riboside (hydrolysis)” value ([20]; Shigella boydii NCTC 9850) was “++”. For the same molecule, the “β-Riboside (hydrolysis)” value ([21]; Shigella dysenteriae (type 2) NCTC 9952) was “++”, the “β-Riboside (hydrolysis)” value ([21]; Shigella dysenteriae (type 3) NCTC 9720) was “++” and the “β-Riboside (hydrolysis)” value ([21]; Shigella dysenteriae (type 4) NCTC 9759) was “++”. The “β-Riboside (hydrolysis)” value ([22]; Shigella flexneri NCTC 8192) was “++”, the “β-Riboside (hydrolysis)” value ([22]; Shigella flexneri NCTC 9723) was “++” and the “β-Riboside (hydrolysis)” value ([22]; Shigella flexneri NCTC 9780) was “++”. The “β-Ribofuranoside (hydrolysis)” value ([23]; Reference No. 1) was “++”, the “β-Ribofuranoside (hydrolysis)” value ([23]; Reference No. 2) was “++” and the “β-Ribofuranoside (hydrolysis)” value ([23]; Reference No. 3) was “++”. For the same molecule, the “β-Ribofuranoside (hydrolysis)” value ([23]; Reference No. 4) was “++”, the “β-Ribofuranoside (hydrolysis)” value ([23]; Reference No. 5) was “++” and the “β-Riboside (hydrolysis)” value [24] was “++”. For the same molecule, the “β-Riboside (hydrolysis)” value [25] was “++”, the “β-Riboside (hydrolysis)” value [26] was “++” and the “β-Ribofuranoside (hydrolysis)” value ([27]; C. diphtheriae NCTC 3987) was “+”. For the same molecule, the “β-Ribofuranoside (hydrolysis)” value ([27]; C. diphtheriae NCTC 10356) was “++”, the “β-Ribofuranoside (hydrolysis)” value ([27]; C. diphtheriae NCTC 11397) was “++” and the “β-Ribofuranoside (hydrolysis)” value ([27]; Corynebacterium diphtheria NEQAS) was “++”. The “Activity with the substrate” value ([27]; Corynebacterium diphtheriae) was “active”, the “β-Ribofuranoside (hydrolysis)” value ([28]; Enterococcus faecium 121285 - wild ′99) was “−” and the “β-Ribofuranoside (hydrolysis)” value ([28]; Enterococcus faecium, Reference No. 1) was “−”. The “β-Ribofuranoside (hydrolysis)” value ([28]; Enterococcus faecium, Reference No. 2) was “−”, the “β-Ribofuranoside (hydrolysis)” value ([28]; Enterococcus faecium, Reference No. 3) was “−” and the “β-Ribofuranoside (hydrolysis)” value ([28]; Enterococcus faecium, Reference No. 4) was “+”. The “β-Ribofuranoside (hydrolysis)” value ([28]; Enterococcus faecium, Reference No. 5) was “−”, the “β-Ribofuranoside (hydrolysis)” value ([28]; Enterococcus faecium, Reference No. 6) was “+” and the “β-Ribofuranoside (hydrolysis)” value ([28]; Enterococcus faecium, Reference No. 7) was “−”.
